In US10857085B2, “Preparations comprising carnosines” (Symrise AG, priority 2015, dated 2020):

Assays:
[1] = target: pancreas elastase (Sus scrofa, UniProt P00772); experiment: Inhibition of elastase activity (chromogenic labelled elastin substrate, OD 410 nm); format: biochemical; settings: 0.3% by weight; 30 minutes at room temperature; relative to control = 0%
Procedure: Elastase is a protease which is secreted by the fibroblasts under inflammatory conditions and is jointly responsible for the degradation of dermal macromolecules, such as, for example, collagen and elastin, and thus for skin ageing.
In order to determine the effectiveness of the plant extract in inhibiting the release of elastase, pancreas elastase (a serine protease) was studied and, as substrate, elastin was labeled with a chromogenic synthetic substrate. The system was incubated with the active ingredients for 30 minutes at room temperature and then, after centrifugation, the optical density of the dye at 410 nm was determined. The amount of extracts used was 0.3% by weight. The results were given relative to a control as standard (=0%); al-antitrypsin was used as the standard.

[2] = tested on: human fibroblasts and human keratinocytes; experiment: Inhibition of apoptosis induced by growth factor deficiency (cell count, BrdU ELISA of cytoplasmic DNA fragments); format: cell-based; settings: 0.001 % w/v, in comparison to the control = 100; for Content of DNA fragments: BrdU in cytoplasmic DNA fragments, based on a million cells
Source text: Apoptosis, unlike necrosis, is the natural purposive cell death of specific undesired or damaged cells. It is an active process of the cells (suicide on command). In the case of skin ageing especially, a deficiency of growth factors in the skin leads to induced apoptosis of the skin cells. In the cells affected by apoptosis, the nuclear DNA is degraded by the specific enzyme endonuclease and the DNA fragments are passed into the cytoplasm.
The ability of carnosines to prevent apoptosis induced by a deficiency of growth factors in human skin cells was studied. These tests were carried out in vitro on human fibroblasts and human keratinocytes. The human cells were cultivated in a nutrient medium (DMEM=Dulbecco minimum essential medium from Life Technologie Sarl) with 10% fetal calf serum (from Dutcher). Bromodeoxyuridine (BrdU) was added to the nutrient medium; it was incorporated into the DNA and later served for detection of the DNA fragments in the cytoplasm. After an incubation period of two days, the nutrient medium was replaced by nutrient medium (DMEM) without fetal calf serum. The active substance to be tested was added. For comparison, a cell sample without active substance to be tested was incubated.
After a further incubation period of one or two days at 37° C., the cells were recovered by trypsinization according to the method of Dunnebacke and Zitcer described in: Cell and tissue culture, Ed.: J. Paul, Churchill Livingstone, 1975, p. 226. After the trypsinization, the cells were centrifuged and counted. Then the content of BrdU in the DNA fragments from the cytoplasm was determined by means of the ELISA test (ELISA kit from Roche). The content of BrdU is a measure of the DNA fragments which have passed from the nucleus, the cell core, into the cytoplasm. The results were based on a million cells and given in percent in comparison to the control.

[3] = tested on: human fibroblasts; experiment: Synthesis of dermal macromolecules (GAG) in collagen gel containing human fibroblasts; format: cell-based; settings: 0.5% by weight FCS + 0.01% by weight substance; for Density, 14 days: relative density of collagen gel (0=clear or white, 1=black)
Source text: The dermis is composed of cells (fibroblasts and mast cells), tissue components (collagen and elastin) and so-called ground substances. These ground substances include, for example, glycosaminoglycan (GAG), hyaluronic acid, chondroitin sulfate, dermatan sulfate and glycoproteins. As a result of skin ageing, the intermolecular strength and elasticity of the dermis, and thus the tautness of the skin, is reduced. Likewise, the number of skin cells present, in particular fibroblasts, is reduced as the skin ages. The collagen fibers are fragmented over time, and the proportion of insoluble to soluble collagen increases. The fine dermal elastic fibers become coarse and are destroyed. The synthesis of GAG (glycosaminoglycan) is reduced. All these processes contribute to skin ageing and the manifestations thereof, such as wrinkles and lack of tautness of the skin.
The measuring method is based on staining macromolecules in a culture of human fibroblasts which, with type I collagen, forms a collagen gel or collagen lattice fibers. Certain regions of those fibers are quantified by means of staining reagents for the proportion of the mentioned macromolecules.
For that purpose, a suspension of human fibroblasts was mixed with a solution of type I collagen (1-2 mg/ml). This mixture was incubated in a defined nutrient medium (DMEM=Dulbecco minimum essential medium, Life Technologie Sarl) comprising 0.5 or 2% by weight fetal calf serum (FCS) for 14 days at 37° C. in a 5% CO2 atmosphere in Petri dishes (5 ml per dish) with the addition of different concentrations of the plant extracts to be tested.
The kinetics of the collagen gel […] was determined 2 to 3 times per week by measuring two perpendicular diameters on each collagen gel using a microscope with an image analysis system. The size of the area is shown in cm^2 in Table 8. After incubation for 14 days, the density of the collagen gel was determined by image analysis with a light source of visible light, by comparatively analyzing different gray stages. This is a relative determination of the density (0=clear or white and 1=black), which cannot be given a unit.
After an incubation period of 7 and 14 days, biopsies (tissue samples) were taken and histological sections of the collagen gel containing human fibroblasts were obtained. The synthesis of macromolecules was analyzed and quantified by the staining of glycosaminoglycan with PAS Alcian blue, for example from SIGMA, by the periodic acid-Schiff method (PAS) described in: Mowry R W, Anal. NY Adad. Sci. 106 Art 2, 402, 1963. The stimulation of the synthesis of macromolecules was evaluated in the immediate vicinity of fibroblasts. This zone is also referred to as the “perifibroblast area”.
The “perifibroblast” secretion, or the secretion of fibroblasts into the periphery, was quantified by an image analyzer by means of a microscope. Reactive structures in the “perifibroblast area” were detected, and the different gray stages were comparatively determined. The values of the gray stages were thereby subdivided from 0=white to 255=black. These parameters are directly proportional to the intensity of the synthesis of macromolecules and thus to the GAG content of the fibroblasts.
The results of the values of these parameters are shown in Table 3 below and are to be regarded directly as representative values for the synthesis activity of the fibroblasts. The content of GAGs is described as a relative value of the gray stage.

[4] = tested on: glucose-6-phosphate dehydrogenase (G6PDH); experiment: G6PDH activity in vitro on human fibroblasts (enzymatic method of Okada); format: cell-based; settings: 0.001 % w/v; for G6PDH after 3 d: compared to blank sample = 100, after 3 d; for G6PDH after 6 d: compared to blank sample = 100, after 6 d
Source text: (§1) The enzyme glucose-6-phosphate dehydrogenase (G6PDH) catalyzes the first step of the so-called “pentose pathway”, in which an important DNA component, namely deoxyribose, is formed. Glucose 6-phosphate (G6P) is thereby converted into 6-phosphogluconate (6PG) by means of G6PDH. At the same time, the coenzyme NADP required thereby is reduced to NADPH2, which in turn is able to catalyze a large number of other biological reactions such as, for example, the recycling of glutathione or lipid synthesis. Reduced glutathione protects many enzymes which have SH groups and cells against oxidative stress, such as, for example, the action of UV. The G6PDH content is thus an important parameter for cell protection and skin renewal. G6PDH activity was determined in vitro on human fibroblasts by the enzymatic method of Okada, while the DNA content was determined by the Desaulniers method. The results of 3 series of measurements with triple determination are given in %-rel. compared to a blank sample.

[5] = tested on: human fibroblasts; experiment: DNA content of human fibroblasts (Desaulniers method); format: cell-based; settings: 0.001 % w/v; for DNA after 3 d: compared to blank sample = 100, after 3 d; for DNA after 6 d: compared to blank sample = 100, after 6 d
Source text: as §1

[6] = tested on: type I collagen; experiment: Inhibition of the non-enzymatic glycation of collagen (Schiff's bases, fluorescence 430 nm); format: biochemical; settings: type I collagen with glucose, 21 days at 45° C.; control with glucose 100, control without glucose 46
Source text: Glycation is a non-enzymatic reaction of glucose or other sugars with proteins to form glycoproteins. This reaction leads to unintentional changes in the collagen and elastin and thus to changes in the extracellular matrix. The function of the collagen and the extracellular matrix is disrupted. The prevention according to the invention of glycation leads to a reduction in the non-enzymatic change in collagen and elastin and thus to the prevention of a reduced function of the extracellular matrix.
The suspensions were then centrifuged and the content of Schiff's bases in the supernatant liquid was determined by fluorescence measurement at 430 nm. The results are again based on the control as standards (without extract and without glucose).

pancreas elastase, sequence (P00772 27-266): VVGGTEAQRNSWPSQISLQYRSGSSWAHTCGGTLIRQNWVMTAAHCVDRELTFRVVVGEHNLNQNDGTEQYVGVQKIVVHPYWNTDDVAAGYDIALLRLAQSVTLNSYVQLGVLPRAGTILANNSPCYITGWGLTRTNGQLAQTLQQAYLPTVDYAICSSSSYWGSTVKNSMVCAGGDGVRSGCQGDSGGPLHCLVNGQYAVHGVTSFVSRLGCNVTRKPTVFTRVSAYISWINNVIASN

Row | Elastase inhibition, Inhibition [%] [1] | G6PDH after 3 d [4] | G6PDH after 6 d [4] | SMILES | Content of DNA fragments [2] | Cell count ([2]; medium without fetal calf serum) | Area, 7 days ([3]; collagen gel area, 7 days) | Area, 14 days ([3]; collagen gel area, 14 days) | Density, 14 days ([3]; 14 days) | GAG content, 7 days ([3]; relative value of the gray stage (0=white to 255=black), perifibroblast area, 7 days) | GAG content, 14 days ([3]; relative value of the gray stage (0=white to 255=black), perifibroblast area, 14 days) | DNA after 3 d [5] | DNA after 6 d [5] | Inhibition of the glycation of collagen, Inhibition [%] [6]
1 | 28% | 104 %-rel. | 109 %-rel. | Cl.NCCC(=O)NCCc1cnc[nH]1 [Carnicine*HCl] | 88% | 118% | 9.9 cm2 | 5.8 cm2 | 0.25 | 11.8 | 13.3 | 106 %-rel. | 118 %-rel. | 65%
2 |  |  |  | NCCC(=O)N[C@@H](Cc1cnc[nH]1)C(=O)O [L-Carnosine] | 85% |  |  |  | 0.25 |  |  |  | 120 %-rel. | 68%
3 |  | 89 %-rel. | 85 %-rel. | CCCCC(CC)COC(=O)C(C#N)=C(c1ccccc1)c1ccccc1 (stereo not drawn) [Octocrinyl, reference compound] |  |  |  |  |  |  |  | 95 %-rel. | 90 %-rel. | 
